# Results reported in patent EP4603105A1, “PHARMACEUTICAL COMPOSITION CONTAINING CYCLIC COMPOUND HAVING SELECTIVE KRAS INHIBITORY EFFECT AGAINST HRAS AND NRAS” (CHUGAI SEIYAKU KABUSHIKI KAISHA, priority 2022, dated 2024).
# pIC50: −log10 of the molar value. Where a SMILES comes first, the peptide text is derived from it. Bridges are numbered along the chain shown (N, C = ends). [ ]: non-standard residue; d: D form. The star is where a group is joined. hPhe(3-Cl-4-CF3) = N[C@@H](CCc1ccc(C(F)(F)F)c(Cl)c1)C(=O)O; 3Oxa8azabicyclo(3.2.1)octane = C1CC2COCC1N2*; NEtPhe(4-Me) = CCN[C@@H](Cc1ccc(C)cc1)C(=O)O; NMeAbu(4,4,4-F3) = CN[C@@H](CC(F)(F)F)C(=O)O; NMePhe(4-Me) = CN[C@@H](Cc1ccc(C)cc1)C(=O)O; NMeGly(cPent) = CN[C@H](C(=O)O)C1CCCC1; Hyp = O=C(O)[C@@H]1C[C@@H](O)CN1; NMeF = CN[C@@H](Cc1ccccc1)C(=O)O; NMeI = CC[C@H](C)[C@H](NC)C(=O)O; NMeD = CN[C@@H](CC(=O)O)C(=O)O; NMeL = CN[C@@H](CC(C)C)C(=O)O; NMeS = CN[C@@H](CO)C(=O)O; Morpholide = C1CN(*)CCO1; NMeA = CN[C@@H](C)C(=O)O; NMeAib = CNC(C)(C)C(=O)O; Nle = CCCC[C@H](N)C(=O)O; Piperidide = C1CCN(*)CC1; Ac5c = NC1(C(=O)O)CCCC1; Aze = O=C(O)[C@@H]1CCN1; Sar = CNCC(=O)O
# What was measured:
# [1] = molecular target: GDP-bound NRAS wild-type protein (Homo sapiens, UniProt P01111); assay: Binding to NRAS by surface plasmon resonance (SPR), KD and KD ratio to KRAS; conditions: ratio of KD for GDP-bound NRAS wild-type protein to KD for KRAS
# Protocol: (§1) Surface plasmon resonance was used to analyze the binding affinity of compounds for KRAS, NRAS, and HRAS. The apparatus used was Biacore 8K, 8K+, or T200 (GE Healthcare), and the running buffer used was HBS (10 mM HEPES-NaOH, 150 mM NaCl, pH 7.4) containing 1 mM DTT, 10 mM MgCl2, 0.01% Tween 20, 10 µM GDP, and 4% DMSO.
# (§2) Biotinylated Avi-tag fusion KRAS, NRAS, and HRAS proteins were expressed in E. coli BL21 (DE3) strains, and after cells were homogenized, they were purified using Streptavidin Mutein Matrix and Superdex 75. After purification, GDP-loaded KRAS, NRAS, and HRAS proteins were immobilized on the surface of Sensor Chip CAP (Cytiva) coated with Biotin CAPture Reagent in an immobilization amount of about 100 to 300 RU. Binding of each compound was evaluated by the Single Cycle Kinetics method, and a running buffer or a compound solution was added to the RAS protein non-immobilized surface and the immobilized surface to obtain a binding response. The flow rate was set to 100 µL/min, and in the compound-adding cycle, compound solutions having different concentrations were intermittently added for 75 seconds each, starting from a low concentration. […] In the blank cycle, a running buffer was intermittently added and not the compound solution. The Biotin CAPture Reagent and RAS proteins were immobilized for each cycle, and at the end of each cycle, the sensor chip was regenerated by the regeneration solution appended to the Biotin CAPture Kit (Cytiva). Measurement was carried out at 30°C.
# (§3) The resulting sensorgram was subjected to curve fitting based on a 1:1 binding model on Biacore Insight Evaluation Software or T200 Evaluation Software, and thereby the dissociation constant KD of each compound with respect to KRAS, NRAS, and HRAS was determined. […] Blank indicates a compound from which the KD value with respect to NRAS or HRAS was not obtained.
# HRAS wild-type protein = HRAS wild-type protein (Homo sapiens, UniProt P01112); assay: Binding to HRAS by surface plasmon resonance (SPR), KD and KD ratio to KRAS; conditions: ratio of KD for HRAS wild-type protein to KD for KRAS
# Protocol: as §1, §2, §3
# [2] = tested on: human lung cancer strain NCI-H441; assay type: cell-based
# How it was run: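 Step one: dispense the test compound in serial DMSO dilutions. Step three: add the reagent and measure […].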
# Sequence of HRAS wild-type protein (P01112 whole entry): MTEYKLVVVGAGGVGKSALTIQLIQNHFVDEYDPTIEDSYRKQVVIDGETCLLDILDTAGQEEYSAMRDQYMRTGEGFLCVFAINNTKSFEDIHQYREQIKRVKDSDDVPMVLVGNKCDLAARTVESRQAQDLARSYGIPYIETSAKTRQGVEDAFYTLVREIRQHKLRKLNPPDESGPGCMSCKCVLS
# Sequence of GDP-bound NRAS wild-type protein (P01111 whole entry): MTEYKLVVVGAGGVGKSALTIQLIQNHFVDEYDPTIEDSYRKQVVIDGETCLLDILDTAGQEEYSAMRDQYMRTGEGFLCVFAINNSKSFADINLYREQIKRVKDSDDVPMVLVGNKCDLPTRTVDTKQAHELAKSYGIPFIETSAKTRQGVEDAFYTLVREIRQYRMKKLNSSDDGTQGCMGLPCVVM
SMILES,NRAS /KRAS [1],HRAS /KRAS (HRAS wild-type protein),pIC50 [2]
CC[C@H](C)[C@@H]1NC(=O)[C@H](C)N(C)C(=O)C[C@@H](C(=O)N2CCOCC2)N(C)C(=O)[C@H](C2CCCC2)N(C)C(=O)C2(CCCC2)NC(=O)[C@@H]2CCCN2C(=O)[C@H](CCc2ccc(C(F)(F)F)c(Cl)c2)NC(=O)CN(C)C(=O)[C@H](Cc2ccc(C)cc2)N(CC)C(=O)CN(C)C(=O)CN(C)C1=O [PP0031] ([NMeA]I[Sar][Sar][NEtPhe(4-Me)][Sar][hPhe(3-Cl-4-CF3)]P[Ac5c][NMeGly(cPent)][NMeD]-Morpholide; lactam N-11),B (a compound having 3 or more and less than 10 is denoted as B),C (A compound having a KD ratio of 0.1 or more and less than 3 is denoted as C),7.94
"CC[C@H](C)[C@@H]1NC(=O)[C@H](CC(F)(F)F)N(C)C(=O)C[C@@H](C(=O)N2CCOCC2)N(C)C(=O)[C@H](C2CCCC2)N(C)C(=O)C2(CCCC2)NC(=O)[C@@H]2CCCN2C(=O)[C@H](CCc2ccc(C(F)(F)F)c(Cl)c2)NC(=O)CN(C)C(=O)[C@H](Cc2ccc(C)cc2)N(CC)C(=O)CN(C)C(=O)CN(C)C1=O [PP0032] ([NMeAbu(4,4,4-F3)]I[Sar][Sar][NEtPhe(4-Me)][Sar][hPhe(3-Cl-4-CF3)]P[Ac5c][NMeGly(cPent)][NMeD]-Morpholide; lactam N-11)",C (A compound having a KD ratio of 0.1 or more and less than 3 is denoted as C),C (A compound having a KD ratio of 0.1 or more and less than 3 is denoted as C),7.57
CC[C@H](C)[C@@H]1NC(=O)[C@H](CC(C)C)N(C)C(=O)C[C@@H](C(=O)N2CCOCC2)N(C)C(=O)[C@H](C2CCCC2)N(C)C(=O)C2(CCCC2)NC(=O)[C@@H]2CCCN2C(=O)[C@H](CCc2ccc(C(F)(F)F)c(Cl)c2)NC(=O)CN(C)C(=O)[C@H](Cc2ccc(C)cc2)N(C)C(=O)[C@H](CO)N(C)C(=O)CN(C)C1=O [PP0037] ([NMeL]I[Sar][NMeS][NMePhe(4-Me)][Sar][hPhe(3-Cl-4-CF3)]P[Ac5c][NMeGly(cPent)][NMeD]-Morpholide; lactam N-11),C (A compound having a KD ratio of 0.1 or more and less than 3 is denoted as C),C (A compound having a KD ratio of 0.1 or more and less than 3 is denoted as C),6.37
CC[C@H](C)[C@@H]1NC(=O)[C@H](CC(C)C)N(C)C(=O)C[C@@H](C(=O)N2CCOCC2)N(C)C(=O)[C@H](C2CCCC2)N(C)C(=O)C2(CCCC2)NC(=O)[C@@H]2CCCN2C(=O)[C@H](CCc2ccc(C(F)(F)F)c(Cl)c2)NC(=O)CN(C)C(=O)[C@H](Cc2ccccc2)N(C)C(=O)CN(C)C(=O)CN(C)C1=O [PP0039] ([NMeL]I[Sar][Sar][NMeF][Sar][hPhe(3-Cl-4-CF3)]P[Ac5c][NMeGly(cPent)][NMeD]-Morpholide; lactam N-11),C (A compound having a KD ratio of 0.1 or more and less than 3 is denoted as C),C (A compound having a KD ratio of 0.1 or more and less than 3 is denoted as C),7.70
CCO[C@@H]1C[C@H]2C(=O)NC3(CCCC3)C(=O)N(C)[C@@H](C3CCCC3)C(=O)N(C)[C@H](C(=O)N3CCOCC3)CC(=O)N(C)[C@@H](CC(C)C)C(=O)N[C@@H]([C@@H](C)CC)C(=O)N(C)CC(=O)N(C)CC(=O)N(CC)[C@@H](Cc3ccc(C)cc3)C(=O)N(C)CC(=O)N[C@@H](CCc3ccc(C(F)(F)F)c(Cl)c3)C(=O)N2C1 [PP0042] ([NMeL]I[Sar][Sar][NEtPhe(4-Me)][Sar][hPhe(3-Cl-4-CF3)][Hyp](Et)[Ac5c][NMeGly(cPent)][NMeD]-Morpholide; lactam N-11),C (A compound having a KD ratio of 0.1 or more and less than 3 is denoted as C),C (A compound having a KD ratio of 0.1 or more and less than 3 is denoted as C),8.14
CC[C@H](C)[C@@H]1NC(=O)[C@H](CC(C)C)N(C)C(=O)C[C@@H](C(=O)N2CCOCC2)N(C)C(=O)[C@H]([C@@H](C)CC)N(C)C(=O)C2(CCCC2)NC(=O)[C@@H]2CCCN2C(=O)[C@H](CCc2ccc(C(F)(F)F)c(Cl)c2)NC(=O)CN(C)C(=O)[C@H](Cc2ccc(C)cc2)N(CC)C(=O)CN(C)C(=O)CN(C)C1=O [PP0043] ([NMeL]I[Sar][Sar][NEtPhe(4-Me)][Sar][hPhe(3-Cl-4-CF3)]P[Ac5c][NMeI][NMeD]-Morpholide; lactam N-11),C (A compound having a KD ratio of 0.1 or more and less than 3 is denoted as C),C (A compound having a KD ratio of 0.1 or more and less than 3 is denoted as C),7.69
CC[C@H](C)[C@@H]1NC(=O)[C@H](CC(C)C)N(C)C(=O)C[C@@H](C(=O)N2CCOCC2)N(C)C(=O)[C@H](CC(C)C)N(C)C(=O)C2(CCCC2)NC(=O)[C@@H]2CCCN2C(=O)[C@H](CCc2ccc(C(F)(F)F)c(Cl)c2)NC(=O)CN(C)C(=O)[C@H](Cc2ccc(C)cc2)N(CC)C(=O)CN(C)C(=O)CN(C)C1=O [PP0045] ([NMeL]I[Sar][Sar][NEtPhe(4-Me)][Sar][hPhe(3-Cl-4-CF3)]P[Ac5c][NMeL][NMeD]-Morpholide; lactam N-11),C (A compound having a KD ratio of 0.1 or more and less than 3 is denoted as C),C (A compound having a KD ratio of 0.1 or more and less than 3 is denoted as C),6.53
CCCC[C@@H]1NC(=O)[C@H](CCc2ccc(C(F)(F)F)c(Cl)c2)NC(=O)CN(C)C(=O)[C@H](Cc2ccc(C)cc2)N(C)C(=O)[C@@H]2CCN2C(=O)[C@H](C)N(C)C(=O)[C@H]([C@@H](C)CC)NC(=O)[C@H](CC(C)C)N(C)C(=O)C[C@@H](C(=O)N2CCCCC2)N(C)C(=O)[C@H](CC(C)C)NC(=O)C(C)(C)N(C)C1=O [PP0047] ([NMeL]I[NMeA][Aze][NMePhe(4-Me)][Sar][hPhe(3-Cl-4-CF3)][Nle][NMeAib]L[NMeD]-Piperidide; lactam N-11),C (A compound having a KD ratio of 0.1 or more and less than 3 is denoted as C),C (A compound having a KD ratio of 0.1 or more and less than 3 is denoted as C),6.64
CCCC[C@@H]1NC(=O)[C@H](CCc2ccc(C(F)(F)F)c(Cl)c2)NC(=O)CN(C)C(=O)[C@H](Cc2ccc(C)cc2)N(CC)C(=O)[C@@H]2CCN2C(=O)[C@H](C)N(C)C(=O)[C@H]([C@@H](C)CC)NC(=O)[C@H](CC(C)C)N(C)C(=O)C[C@@H](C(=O)N2CCCCC2)N(C)C(=O)[C@H](CC(C)C)NC(=O)C(C)(C)N(C)C1=O [PP0048] ([NMeL]I[NMeA][Aze][NEtPhe(4-Me)][Sar][hPhe(3-Cl-4-CF3)][Nle][NMeAib]L[NMeD]-Piperidide; lactam N-11),C (A compound having a KD ratio of 0.1 or more and less than 3 is denoted as C),C (A compound having a KD ratio of 0.1 or more and less than 3 is denoted as C),6.33
CCCC[C@@H]1NC(=O)[C@H](CCc2ccc(C(F)(F)F)c(Cl)c2)NC(=O)CN(C)C(=O)[C@H](Cc2ccc(C)cc2)N(C)C(=O)CN(C)C(=O)CN(C)C(=O)[C@H]([C@@H](C)CC)NC(=O)[C@H](CC(C)C)N(C)C(=O)C[C@@H](C(=O)N2CCCCC2)N(C)C(=O)[C@H](CC(C)C)NC(=O)C(C)(C)N(C)C1=O [PP0049] ([NMeL]I[Sar][Sar][NMePhe(4-Me)][Sar][hPhe(3-Cl-4-CF3)][Nle][NMeAib]L[NMeD]-Piperidide; lactam N-11),C (A compound having a KD ratio of 0.1 or more and less than 3 is denoted as C),C (A compound having a KD ratio of 0.1 or more and less than 3 is denoted as C),6.70
CC[C@H](C)[C@@H]1NC(=O)[C@H](CC(C)C)N(C)C(=O)C[C@@H](C(=O)N2C3CCC2COC3)N(C)C(=O)[C@H](C2CCCC2)N(C)C(=O)C2(CCCC2)NC(=O)[C@@H]2CCCN2C(=O)[C@H](CCc2ccc(C(F)(F)F)c(Cl)c2)NC(=O)CN(C)C(=O)[C@H](Cc2ccc(C)cc2)N(CC)C(=O)CN(C)C(=O)CN(C)C1=O [PP0051] ([NMeL]I[Sar][Sar][NEtPhe(4-Me)][Sar][hPhe(3-Cl-4-CF3)]P[Ac5c][NMeGly(cPent)][NMeD]-{3Oxa8azabicyclo(3.2.1)octane}; lactam N-11),C (A compound having a KD ratio of 0.1 or more and less than 3 is denoted as C),C (A compound having a KD ratio of 0.1 or more and less than 3 is denoted as C),7.66
